Assay results published in PMC9126886, “Yeast-based directed-evolution for high-throughput structural stabilization of G protein-coupled receptors (GPCRs)” (Scientific Reports, 2022).

Columns and labels:
Assay in all cases: saturation binding of fluorescent ligand, flow cytometry, permeabilized yeast
Format in all cases: cell-based
Settings in all cases: PBS, 1% DMSO, 22 °C, 1 h; apparent affinity; labelled compound (fluorescent ligand itself); no G protein
[1] = biological target: T1, A2aR (Homo sapiens, UniProt P29274, P313S/P354A)
T1 construct: gene ADORA2A; full-length receptor with C-terminus (positions to 412), N-terminal synthetic pre-pro leader, no eGFP; pYES2 (subcloned from pITy-MC-His10), permeabilized S. cerevisiae BY4741
T1 sequence (P29274 whole entry P313S/P354A): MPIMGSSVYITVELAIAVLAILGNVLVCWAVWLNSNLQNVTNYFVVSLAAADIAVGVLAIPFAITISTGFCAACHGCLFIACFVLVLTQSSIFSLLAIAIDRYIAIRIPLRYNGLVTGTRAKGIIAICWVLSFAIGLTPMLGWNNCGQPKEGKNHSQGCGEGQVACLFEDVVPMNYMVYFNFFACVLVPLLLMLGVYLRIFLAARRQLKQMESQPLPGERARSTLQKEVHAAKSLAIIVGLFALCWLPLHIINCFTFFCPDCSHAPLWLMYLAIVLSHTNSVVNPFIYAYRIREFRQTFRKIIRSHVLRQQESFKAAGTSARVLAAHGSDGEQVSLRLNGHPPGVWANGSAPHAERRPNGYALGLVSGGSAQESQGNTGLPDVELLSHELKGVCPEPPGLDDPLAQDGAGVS
From the text: (§1) saturation binding of fluorescent ligand, flow cytometry, permeabilized yeast on A2aR

[2] = biological target: T2, A2aR (Homo sapiens, UniProt P29274, N34K)
T2 construct: gene ADORA2A; full-length receptor with C-terminus (positions to 412), N-terminal synthetic pre-pro leader, no eGFP; pYES2 (subcloned from pITy-MC-His10), permeabilized S. cerevisiae BY4741
T2 sequence (P29274 whole entry N34K): as the sequence (P29274 whole entry P313S/P354A) above, with N34K, S313P, A354P counted along it
From the text: as §1

[3] = biological target: T3, A2aR (Homo sapiens, UniProt P29274)
T3 construct: gene ADORA2A; full-length receptor with C-terminus (positions to 412), N-terminal synthetic pre-pro leader, no eGFP; pYES2 (subcloned from pITy-MC-His10), permeabilized S. cerevisiae BY4741
T3 sequence (P29274 whole entry): as the sequence (P29274 whole entry P313S/P354A) above, with S313P, A354P counted along it
From the text: as §1

CA200623
logEC50 ± SE^c [1]: −8.90 ± 0.03
logEC50 ± SE^c [2]: −7.78 ± 0.04
logEC50 ± SE^c [3]: −8.01 ± 0.06
